Common to all, as to assay type: cell-based
Data set [1] in a line: Percent viability of treated MCF7 cells (flow cytometry). As to conditions: human, 5 mg/ml DCA, 0.1 mg/ml Etomoxir, or both, time point (24 or 48 hrs) not given. Here is the method:
(§1) 1. Cell Culture Conditions: The MCF7 and MCF7 ADR cell lines were purchased from American Type Culture Collection, were thawed, and grown in RPMI 1640 medium supplemented with standard supplements, including 10% fetal calf serum, gentamycin, penicillin, streptomycin, sodium pyruvate, HEPES buffer, 1-glutamine, and 2-ME.
(§2) 2. Methods: Cells were plated into a 12 well plate with 4 mis total volume containing approximately 0.6×10^6/well for MCF7 cells and 0.8×10^6/well for MCF7 ADR cells. Treatment groups included no treatment as control; 5 mg/ml Dichloroacetate; 0.1 mg/ml Etomoxir; Both 5 mg/ml DCA and 0.1 mg/ml Etomoxir.
(§3) The cells were incubated at 37° C. in an atmosphere containing 5% CO2 and approximately 92% humidity. The cells were incubated for 24 and 48 hours. At each time point, the cells from that experimental time were harvested and stained for flow cytometric analysis of cell surface expression of HER-2/neu using anti-human HER-2 Fitc. (BD biosciences, Catalogue #340553).

Data set [2] can be described thus: Percent viability of treated MCF7 ADR cells (flow cytometry). As to conditions: human, 5 mg/ml DCA, 0.1 mg/ml Etomoxir, or both, time point (24 or 48 hrs) not given. The procedure: as §1, §2, §3
A further data set concerns HER-2 on MCF7 ADR cells. As to the kind of experiment: Cell surface HER-2 expression by flow cytometry with FITC anti-human HER-2. Here is the method: as §1, §2, §3
Harvested cells were stained using standard fixed staining procedure that called for a 1:5 dilution of Fitc-anti-human HER-2 or isotype control. […] Samples were acquired and analyzed on a Coulter Excel Flow Cytometer. […]
The results in the Figures are expressed in histogram analyses. The Y axis represents cell number of the 5000 live cells versus the X axis which is a reflection of relative Fitc fluorescence. […]

The record followed here is patent publication US8394377B2, “Methods for treating cancer using combination therapy” (The Regents of the University of Colorado, priority 2008, dated 2013).

Structures are written as SMILES.

As to `O=C(O)C(Cl)Cl` [DCA, Dichloroacetate], the results for the viability in data set [1] and in data set [2] were 42% and 58%, respectively.
For `CCOC(=O)C1(CCCCCCOc2ccc(Cl)cc2)CO1` (stereo not drawn) [Etomoxir, 2-(6-(4-chlorophenoxy)-hexyl)-oxirane-2-carboxylic acid ethyl ester], the viability in data set [1] was 78%; in data set [2], 66%. In the data set with HER-2 on MCF7 ADR cells (HER-2 lo/negative MCF7-Adr cells, as shown in the figures), the HER-2 expression entry is listed as “major increase”. The “HER-2 cell surface expression” value in the data set with HER-2 on MCF7 ADR cells (MCF7 ADR cells, 48 hours, 0.1 mg/ml Etomoxir) is listed as “noticeable Increase”.
